According to US11945784B2, “IRE1 small molecule inhibitors” (Cornell University, priority 2018, dated 2024):
pEC50, pIC50: −log10 of the molar value.

Key:
[1] = molecular target: T1, IRE1α (Homo sapiens (Human), UniProt O75460); test: In vitro luciferase assay (IRE1α Endoribonuclease Nanoluciferase Assay); type: cell-based; details: 293T cells, XBP1 luciferase reporter
Experimental: Compounds disclosed herein were assessed for disruption of IRE-1 signaling using a IRE1α Endoribonuclease Nanoluciferase Assay. Briefly, 2.5×10^6 293T cells were seeded in a 10 cm^2 tissue culture plate. About 24 hours later, the cells were transfected with Effectene. In a 15 mL Tube, the following was added: 2 μg XBP1 luciferase reporter plasmid (PGK-Luc2-P2A-XBP1u-Nanoluciferase-PEST); 300 μl EC buffer; and 16 μl Enhancer, followed by incubation at room temp for 5 minutes. Next, 60 μl Effectene (Qiagen 301427) was added, followed by incubation at room temperature for 10 minutes. 2.6 mL cDMEM media was added. Old media was aspirated from the cells, followed by addition of 7 mL fresh media. Full transfection mixture was added dropwise to cells. Cells were incubated for 6 hours, followed by trypsinization, centrifugation and resuspension in 11 mL media. 100 uL of cells were plated per a well in a 96 well plate. A day later, ER stressors of choice+/−inhibitors were added. To harvest, media was aspirated from cells completely, then 50 uL 1× passive lysis buffer (Promega: E1941) was added per well and put on shaker (300 rpm) for 30 minutes at room temperature. Cells were centrifuged, and 15 uL sample per well was added to a new, opaque white 384 well plate (Corning 3570). 15 uL OneGlo (nanoluciferase kit, Promega N1630) was added. Plates were spun down, placed on shaker (300 rpm) for 10 minutes. Plates were read on luminometer, 1000 ms integration time per well. 15 uL Stop and Glo (nanoluciferase kit) was added. Plates were spun down, placed on shaker (300 rpm) for 10 minutes. Plates were read on luminometer, 1000 ms second integration time per well. Recordings are provided below in Table 4

[2] = test system: 293T cells; test: Growth assay (cytotoxicity); type: cell-based; details: Homo sapiens, HEK-293T, 48 h, 2 day incubation, read-out: percentage growth at 5 uM
Experimental: A growth assay is performed to evaluate the compounds disclosed in Table 1 for cytotoxicity. Briefly, 5,000,000 293T cells are resuspended in 18 mL of cDMEM for a final concentration of 277,777 cells/mL. 180 μL (50,000 cells) cDMEM was seeded per well in 96 well flat bottom plate, with some wells left unfilled. In a 96 well plate, […] cDMEM and 1 uL of any one of the compounds disclosed herein. 133.3 uL cDMEM is added to wells 1, 2, 3, 5, 6, 7, 9, 10, and 11 of row A. Wells are serially diluted with 66.7 uL (highest concentration on right, lowest on left) to the total concentrations shown below. 20 uL of each dilution is transferred in duplicate to the cells plated in the 96-well plate. The plate is then placed in a humidified chamber for a 2 day incubation, and then photographed (media is more yellow in wells with potent cell growth). Absorbance is then measured at […] (lower for more acidic media) and […] (higher for more acidic media).

[3] = molecular target: T1, IRE1α; test: In vitro FRET assay; type: biochemical; details: XBP1 RNA probe
Experimental: In vitro FRET assay was performed to evaluate the ability of select compounds to inhibit IRE1, the results of which are summarized in Table 3. To perform the in vitro FRET assay, 1× complete assay buffer (CAB; […], 50 mM sodium citrate pH 7.15, 1 mM magnesium acetate, 0.02% tween 20) was used to dilute SignalChem IRE1α protein to a final concentration of 2 nM. Selected compounds were serially diluted with DMSO in a non-binding black 384-well plate for a total of 15 ul in each well. 2 ul of the serially diluted compound or DMSO control were then added to new wells containing 98 ul of 1×CAB, for a total volume of 100 ul, 10 ul of which were then transferred to wells of a new plate. 5 ul of the diluted IRE1α was then added to each well. 5 ul of a […] XBP1 RNA probe was then added to each well. Fluorescence was then read over 30 minutes in kinetic mode (485/515 nm).
Two RNA probes were used, XBP1 wildtype (SEQ ID NO: 2) which is able to be spliced by active IRE1α or XBP1 mutant (SEQ ID NO: 3) which is unable to be spliced. Each probe contained a 5′ 6-FAM modification and a 3′ IOWA Black FQ modification.
A second FRET assay was performed to assess ATP-mediated inhibition. In this case, compounds and IRE1α were prepared and combined as discussed above, with the addition of ATP up to 1 mM final concentration. This mixture was incubated at room temperature for 60 minutes and then 5 ul of 400 nM XBP1 wildtype or mutant RNA probe was added. Plates were then read over 30 minutes in kinetic mode (485/515 nm) and rate of fluorescence increase calculated for different compound dilutions to determine IC50 (Table 3).

T1 sequence (O75460 19-977): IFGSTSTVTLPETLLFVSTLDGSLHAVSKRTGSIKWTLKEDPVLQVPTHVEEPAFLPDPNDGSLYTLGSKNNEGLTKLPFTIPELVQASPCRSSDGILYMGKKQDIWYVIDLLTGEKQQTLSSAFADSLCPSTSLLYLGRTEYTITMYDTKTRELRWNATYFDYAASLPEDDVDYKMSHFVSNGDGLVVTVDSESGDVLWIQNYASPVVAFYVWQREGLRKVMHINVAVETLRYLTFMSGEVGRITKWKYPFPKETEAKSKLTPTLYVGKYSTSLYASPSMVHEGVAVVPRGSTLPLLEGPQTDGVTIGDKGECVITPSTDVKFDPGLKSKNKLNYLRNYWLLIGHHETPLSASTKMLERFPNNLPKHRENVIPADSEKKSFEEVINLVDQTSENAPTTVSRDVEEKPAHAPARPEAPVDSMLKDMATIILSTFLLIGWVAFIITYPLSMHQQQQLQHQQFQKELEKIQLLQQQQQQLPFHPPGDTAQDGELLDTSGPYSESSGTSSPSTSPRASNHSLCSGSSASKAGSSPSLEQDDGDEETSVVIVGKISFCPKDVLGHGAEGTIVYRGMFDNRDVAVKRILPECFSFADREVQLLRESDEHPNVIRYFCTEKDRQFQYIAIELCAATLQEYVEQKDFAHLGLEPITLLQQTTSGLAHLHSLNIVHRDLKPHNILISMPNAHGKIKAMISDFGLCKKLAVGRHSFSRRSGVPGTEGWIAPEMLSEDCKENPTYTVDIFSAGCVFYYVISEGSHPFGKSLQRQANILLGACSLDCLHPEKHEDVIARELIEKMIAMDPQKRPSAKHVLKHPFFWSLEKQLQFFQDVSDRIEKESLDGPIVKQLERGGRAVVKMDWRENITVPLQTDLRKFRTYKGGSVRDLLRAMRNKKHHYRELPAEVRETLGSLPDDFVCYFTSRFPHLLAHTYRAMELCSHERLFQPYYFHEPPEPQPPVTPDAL

SMILES | pEC50 [1] | viability at 5 µM [2] | pIC50 [3]
NC1CCC(Nc2ncc(CCc3ccc(NS(=O)(=O)c4ccccc4Cl)cc3)cn2)CC1 (stereo not shown) [Compound 1, N-(4-(2-(2-(((1r,4r)-4-aminocyclohexyl)amino)pyrimidin-5-yl)ethyl)phenyl)-2-chlorobenzenesulfonamide] | 7.00 to 7.30 | > 75% | 8.30 to 9.00
NC1CCC(Nc2ncc(/C=C/c3ccc(NS(=O)(=O)c4ccccc4Cl)nn3)cn2)CC1 (stereo not shown) [Compound 2, N-(6-((E)-2-(2-(((1r,4r)-4-aminocyclohexyl)amino)pyrimidin-5-yl)vinyl)pyridazin-3-yl)-2-chlorobenzenesulfonamide] | 7.00 to 7.30 | > 75% | –
NC1CCC(Nc2ncc(CCc3ccc(NS(=O)(=O)c4ccccc4Cl)c(F)c3)cn2)CC1 (stereo not shown) [Compound 8, N-(4-(2-(2-(((1r,4r)-4-aminocyclohexyl)amino)pyrimidin-5-yl)ethyl)-2-fluorophenyl)-2-chlorobenzenesulfonamide] | 5.00 to 7.00 | > 75% | ≥ 9.00
COc1nc(NS(=O)(=O)c2ccccc2Cl)ccc1CCc1cnc(NC2CCC(N)CC2)nc1 (stereo not shown) [Compound 10, N-(5-(2-(2-(((1r,4r)-4-aminocyclohexyl)amino)pyrimidin-5-yl)ethyl)-6-methoxypyridin-2-yl)-2-chlorobenzenesulfonamide] | – | > 75% | ≥ 9.00
COc1cc(NS(=O)(=O)c2ccccc2Cl)ccc1/C=C/c1cnc(NC2CCC(N)CC2)nc1 (stereo not shown) [Compound 14, N-(4-((E)-2-(2-(((1r,4r)-4-aminocyclohexyl)amino)pyrimidin-5-yl)vinyl)-3-methoxyphenyl)-2-chlorobenzenesulfonamide] | ≥ 8.30 | > 35% | ≥ 9.00
COc1nc(NS(=O)(=O)c2ccccc2Cl)ccc1CCc1cnc(NC2CCC(N(C)C)CC2)nc1 (stereo not shown) [Compound 19, 2-chloro-N-(5-(2-(2-(((1r,4r)-4-(dimethylamino)cyclohexyl)amino)pyrimidin-5-yl)ethyl)-6-methoxypyridin-2-yl)benzenesulfonamide] | 7.30 to 8.30 | > 75% | ≥ 9.00
Cc1nc(NS(=O)(=O)c2ccccc2Cl)c(F)cc1CCc1cnc(NC2CCC(N(C)C)CC2)nc1 (stereo not shown) [Compound 24, 2-chloro-N-(5-(2-(2-(((1r,4r)-4-(dimethylamino)cyclohexyl)amino)pyrimidin-5-yl)ethyl)-3-fluoro-6-methylpyridin-2-yl)benzenesulfonamide] | – | > 75% | 8.30 to 9.00
Cc1nc(NS(=O)(=O)c2ccccc2Cl)c(F)cc1/C=C/c1cnc(NC2CCC(N(C)C)CC2)nc1 (stereo not shown) [Compound 25, 2-chloro-N-(5-((E)-2-(2-(((1r,4r)-4-(dimethylamino)cyclohexyl)amino)pyrimidin-5-yl)vinyl)-3-fluoro-6-methylpyridin-2-yl)benzenesulfonamide] | 7.30 to 8.30 | > 75% | ≥ 9.00
Cc1cc(NS(=O)(=O)c2ccccc2Cl)ccc1/C=C/c1cnc(NC2CCC(N(C)C)CC2)nc1 (stereo not shown) [Compound 26, 2-chloro-N-(4-((E)-2-(2-(((1r,4r)-4-(dimethylamino)cyclohexyl)amino)pyrimidin-5-yl)vinyl)-3-methylphenyl)benzenesulfonamide] | ≥ 8.30 | > 35% | ≥ 9.00
Cc1cc(NS(=O)(=O)c2ccccc2Cl)cc(F)c1/C=C/c1cnc(NC2CCC(N(C)C)CC2)nc1 (stereo not shown) [Compound 27, 2-chloro-N-(4-((E)-2-(2-(((1r,4r)-4-(dimethylamino)cyclohexyl)amino)pyrimidin-5-yl)vinyl)-3-fluoro-5-methylphenyl)benzenesulfonamide] | ≥ 8.30 | > 50% | ≥ 9.00
COc1nc(NS(=O)(=O)c2ccc(F)c(F)c2Cl)ccc1/C=C/c1cnc(NC2CCC(N(C)C)CC2)nc1 (stereo not shown) [Compound 41, 2-chloro-N-(5-((E)-2-(2-(((1r,4r)-4-(dimethylamino)cyclohexyl)amino)pyrimidin-5-yl)vinyl)-6-methoxypyridin-2-yl)-3,4-difluorobenzenesulfonamide] | 7.30 to 8.30 | > 75% | ≥ 9.00
CCc1nc(NS(=O)(=O)c2cnccc2Cl)ccc1/C=C/c1cnc(NC2CCC(N(C)C)CC2)nc1 (stereo not shown) [Compound 42, 4-chloro-N-(5-((E)-2-(2-(((1r,4r)-4-(dimethylamino)cyclohexyl)amino)pyrimidin-5-yl)vinyl)-6-ethylpyridin-2-yl)pyridine-3-sulfonamide] | 7.30 to 8.30 | – | ≥ 9.00
CNC1CCC(Nc2ncc(C=Cc3ccc(NS(=O)(=O)c4ccccc4Cl)nc3C)cn2)CC1 (stereo not shown) [Compound 44, 2-chloro-N-(6-methyl-5-(2-(2-(((1r,4r)-4-(methylamino)cyclohexyl)amino)pyrimidin-5-yl)vinyl)pyridin-2-yl)benzenesulfonamide] | 7.30 to 8.30 | – | ≥ 9.00
Cc1nc(NS(=O)(=O)c2ccccc2Cl)ccc1/C=C/c1cnc(NC2CCC(N)CC2)nc1 (stereo not shown) [Compound 46, N-(5-((E)-2-(2-(((1r,4r)-4-aminocyclohexyl)amino)pyrimidin-5-yl)vinyl)-6-methylpyridin-2-yl)-2-chlorobenzenesulfonamide] | 7.30 to 8.30 | – | ≥ 9.00
CNC1CCC(Nc2ncc(/C=C/c3ccc(NS(=O)(=O)c4ccccc4Cl)nc3OC)cn2)CC1 (stereo not shown) [Compound 48, 2-chloro-N-(6-methoxy-5-((E)-2-(2-(((1r,4r)-4-(methylamino)cyclohexyl)amino)pyrimidin-5-yl)vinyl)pyridin-2-yl)benzenesulfonamide] | ≥ 8.30 | – | ≥ 9.00
Cc1nc(NS(=O)(=O)c2ccccc2Cl)ccc1/C=C/c1cnc(NC23CCC(N)(CC2)CC3)nc1 [Compound 49, (E)-N-(5-(2-(2-((4-aminobicyclo[2.2.2]octan-1-yl)amino)pyrimidin-5-yl)vinyl)-6-methylpyridin-2-yl)-2-chlorobenzenesulfonamide] | 5.00 to 7.00 | – | ≥ 9.00
COc1nc(NS(=O)(=O)c2ccccc2Cl)c(F)cc1/C=C/c1cnc(NC2CCC(N(C)C)CC2)nc1 (stereo not shown) [Compound 50, 2-chloro-N-(5-((E)-2-(2-(((1r,4r)-4-(dimethylamino)cyclohexyl)amino)pyrimidin-5-yl)vinyl)-3-fluoro-6-methoxypyridin-2-yl)benzenesulfonamide] | 7.30 to 8.30 | – | ≥ 9.00
COc1nc(NS(=O)(=O)c2cccc(Cl)c2Cl)ccc1/C=C/c1cnc(NC2CCC(N(C)C)CC2)nc1 (stereo not shown) [Compound 51, 2,3-dichloro-N-(5-((E)-2-(2-(((1r,4r)-4-(dimethylamino)cyclohexyl)amino)pyrimidin-5-yl)vinyl)-6-methoxypyridin-2-yl)benzenesulfonamide] | ≥ 8.30 | – | ≥ 9.00
COc1cc(NS(=O)(=O)c2ccccc2Cl)ccc1/C=C/c1cnc(NC2CCC(N(C)C)CC2)nc1 (stereo not shown) [Compound 55, 2-chloro-N-(4-((E)-2-(2-(((1r,4r)-4-(dimethylamino)cyclohexyl)amino)pyrimidin-5-yl)vinyl)-3-methoxyphenyl)benzenesulfonamide] | ≥ 8.30 | – | ≥ 9.00
